In US20090232735A1, “USE OF FRUCTOSE-BASED THERAPIES FOR THE TREATMENT OF CANCER” (CEDARS-SINAI MEDICAL CENTER, priority 2005, published 2009):

Tests used:
Format in all cases: cell-based, human
[1] = system: AP-1 activation in PANC-1 cells; test: AP-1 probe binding assay, PANC-1 nuclear extracts; settings: PANC-1, 5.5 mM fructose, 48 h
Description: FIG. 24 depicts luciferase activity of PANC-1 cells and primary culture of surgically resected pancreatic tumor cells in accordance with an embodiment of the present invention. PANC-1 pancreatic cancer cells and a primary culture of a surgically resected pancreatic tumor were incubated in 2 mM glucose, 5.5 mM glucose or 5.5 mM fructose for 48 h, after which nuclear extracts were incubated with a biotinylated AP-1 probe, and detected by an antibody-linked colorimetric method. *, p<0.01
In separate experiments PANC-1 cells, and primary cultures of surgically resected pancreatic tumors were incubated in 2 mM glucose, or 5.5 mM glucose or 5.5 mM fructose for 48 h, after which nuclear extracts were incubated with a biotinylated AP-1 probe in binding buffer. AP-1/AP1 probe complexes were next conjugated to a streptavidin-coated assay plate and detected using an AP-1 specific antibody, followed by binding of a horseradish-peroxidase conjugated secondary antibody, and detection by a colorimetric reagent.

[2] = system: GLUT-5 mRNA; test: GLUT-5 mRNA by quantitative real-time RT-PCR in MCF-7 cells
Description: FIG. 10 depicts GLUT-5 expression levels in accordance with an embodiment of the present invention. MCF-7 breast cancer cells were incubated in 2 mM glucose (Glu), 5.5 mM glucose (Glu) or 5.5 mM fructose (Fru) for 4 or 24 hours, after which GLUT-5 expression was quantified using real-time RT-PCR, normalized to GAPDH levels, and expressed as fold-increase compared to GLUT-5 levels detected in MCF-7 cells cultured in 2 mM glucose for a similar time period.
Cellular fructose uptake is facilitated by a member of solute carrier family 2, called glucose transporter type 5 (GLUT-5). Following incubation of MCF-7 breast cancer cells in 2 mM, 5.5 mM glucose or 5.5 mM fructose for […], total RNA was harvested, and analyzed by quantitative real-time RT-PCR analysis using GLUT-5 specific primers to quantify GLUT-5 mRNA expression. GLUT-5 expression was normalized to GAPGH mRNA expression, and expressed as fold-change in comparison to control breast cancer cells incubated in 2 mM glucose for 4, and 24 hours.

[3] = system: PANC-1 pancreatic cancer cells; test: PANC-1 pancreatic cancer cell proliferation (MTS assay)
Description: FIG. 13 depicts higher proliferation rates in pancreatic cancer cells in fructose (5.5 mM) than glucose (5.5 mM) containing medium in accordance with an embodiment of the present invention. PANC-1 cells were pre-incubated in 2 mM glucose, after which they were plated in 5.5 mM fructose or glucose for times between 12-72 h, after which proliferative rates were measured using an MTS assay. Proliferative rates are expressed as the percentage difference between cells grown in 5.5 mM fructose versus 5.5 mM glucose. p<0.01 for times>48 h.
FIG. 14 depicts proliferation rates of pancreatic cells in different fructose or glucose concentrations in accordance with an embodiment of the present invention. PANC-1 cells were plated in a range of fructose or glucose concentrations (5-25 mM) for 72 h, after which proliferative rates were measured using an MTS assay. *, p<0.05 for concentrations between 5-25 mM fructose versus glucose.
FIG. 17 depicts cell proliferation regardless of co-existent glucose concentration in accordance with an embodiment of the present invention. PANC-1 cells were pre-incubated in 2 mM glucose prior to treatment with a range of concentrations (0-15 mM) mixed with a range of fructose concentrations (0-15 mM) for 72 h. PANC-1 cell proliferative rates were then measured using the MTS assay (absorbance in arbitrary units).
FIG. 35 depicts inhibition of pancreatic cancer PANC-1 cell proliferation by incubation with the transketolase inhibitor, oxythiamine (0.5-2 mM) for 72 h in accordance with an embodiment of the present invention. Proliferative rates were measured using the MTS proliferation assay.
Standard media for maintenance cancer cell line culture, including pancreatic cancer cells such as PANC-1 cells contain either low—(5-7 mM), or high—(12-25 mM) glucose concentrations. Clearly, apart from the setting of hyperglycemia, as in patients with diabetes, the glucose concentrations in which pancreatic cancer cells are maintained in vitro are much higher than normal physiological conditions, which range between 2-5 mM glucose. […] Therefore, the inventors first pre-treated the pancreatic cancer cells overnight in standard DMEM medium containing low physiological glucose concentrations (2 mM glucose), and standard 10% fetal bovine serum. The pancreatic cancer cells were then incubated for times between 12, and 96 hours in standard DMEM medium containing 10% fetal bovine serum, and 5.5 mM glucose or 5.5 mM fructose. Proliferative rates were then measured in replicate (minimum of 6) aliquot wells of the pancreatic cancer cells, and the change (expressed as percent increase) in proliferative rates compared between cells grown in glucose, or fructose containing medium.
This first result intrigued the inventors, but given there is little documentation regarding physiological fructose concentrations, the inventors first considered that the “apparent” pro-proliferative effects of fructose were simply a consequence of the highly stylized in vitro experimental conditions, and that if the pancreatic cancer cells were cultured in higher glucose concentrations, this would result in similar proliferative rates to those the inventors observed following culture in 5.5 mM fructose. Therefore, in the next experiments, the inventors compared proliferative rates of the PANC-1 pancreatic cancer cells following culture for 72 h in a range of fructose, and glucose concentrations (2-25 mM). This timepoint was chosen as the inventors had seen maximal pancreatic cancer cell proliferation in 5.5 mM fructose at 72 h. […] While not wishing to be bound by any particular theory, the inventors believe that this latter finding may be because the PANC-1 cells are proliferating at close to maximal capacity by 72 h, once they are exposed to comparatively low fructose concentrations (5 mM). MTS assay was employed to measure pancreatic cancer cell proliferative rates, which utilizes mitochondrial oxidation to quantify cell proliferation. […]

Which results are given for `O=C(CO)[C@@H](O)[C@H](O)[C@H](O)CO` [fructose]?
AP-1 luciferase reporter activity higher than in 5.5 mM glucose [1]: approximately 40%; increase in GLUT-5 mRNA compared to cells in 5.5 mM glucose ([2]; MCF-7, 5.5 mM fructose, 24 hour incubation): two-fold increase; change in GLUT-5 mRNA expression ([2]; MCF-7, 4 hours, vs 2 mM glucose): no significant change; difference in proliferative rates, fructose vs glucose ([3]; PANC-1, 5.5 mM fructose vs 5.5 mM glucose, 48 h): ~13%; higher proliferative rate, fructose vs glucose ([3]; PANC-1, 5.5 mM fructose vs 5.5 mM glucose, 72 h): 23%; proliferative rates in 5 mM fructose compared to 25 mM glucose ([3]; PANC-1, 72 h): higher proliferative rates; cell proliferation with admixed glucose (0-15 mM) and fructose (0-15 mM) ([3]; PANC-1, 72 h, fructose concentrations of 6 mM and above, regardless of glucose concentration): an increase in cell proliferation
